Source: patent US20100132066A1, “AGROBACTERIUM-MEDIATED METHOD FOR PRODUCING TRANSFORMED PLANT WITHOUT SELECTION STEP” (JAPAN TOBACCO INC., priority 2007, published 2010)

Columns and labels:
[1] = tested on: Immature embryos (variety: A188); assay: Transformation efficiency with regeneration medium containing blasticidin S (Example 4); format: cell-based, Maize; conditions: for Number of immature embryos Regenerated: about 2 weeks, 46 inoculated
[2] = tested on: Maize (variety: A188) immature embryos; assay: Regeneration of whole plants from immature embryos cultured on coculture medium supplemented with various types of auxin (Example 1); format: cell-based; conditions: auxin 1.5 mg/l in coculture medium; for Regeneration rate (%): 7 days, no selection step, LSZ medium 30 mg/l hygromycin about 2 weeks, LBA4404 (pSB134), 25 immature embryos; for Vigor: mean score 0-3 of regenerated plants, 2 weeks on regeneration medium
Text: As used herein, the term “vigor” is intended to mean the growth vigor of a regenerated plant. The vigor of a plant may be measured by any known technique used in the art. For example, in the case of maize, scoring may be performed as follows for each transformed plant tissue after the regeneration step: transformed plant tissue showing no regeneration=0, transformed plant tissue giving a regenerated shoot whose maximum length is less than 5 mm=1, transformed plant tissue giving a regenerated shoot whose maximum length is 5 mm to less than 2 cm=2, and transformed plant tissue giving a regenerated shoot whose maximum length is 2 cm or longer=3, followed by calculating a mean value for all transformed plant tissues to thereby determine their vigor. The method of evaluation of vigor is not limited to this technique, and appropriate modifications may be made to well-known techniques, e.g., depending on the type of target to be evaluated.
25 immature embryos were provided for each test. The bar graph (vertical axis on the left side) represents the vigor of regenerated plants, the line graph (vertical axis on the right side) represents the regeneration rate (calculated by dividing the number of immature embryos showing regeneration in each test by the number of inoculated immature embryos), and the horizontal axis represents the type of auxin contained in a coculture medium. The auxin concentration in the coculture medium was set to 1.5 mg/l for each test. The vigor of regenerated plants was evaluated by scoring as follows: immature embryo showing no regeneration=0, immature embryo giving a regenerated shoot whose maximum length is less than 5 mm=1, immature embryo giving a regenerated shoot whose maximum length is 5 mm to less than 2 cm=2, and immature embryo giving a regenerated shoot whose maximum length is 2 cm or longer=3.
Maize (variety: A188) immature embryos (1.0 to 1 5 mm in size) at 7 to 14 days after pollination were aseptically collected and washed once with LS-inf liquid medium (Non-patent Publication No. 11), followed by pretreatment (thermal treatment at 46° C. for 3 minutes and centrifugation at 15,000 rpm for 10 minutes) to increase gene transfer efficiency. In LS-inf liquid medium containing 100 μM acetosyringone, Agrobacterium strain LBA4404 (pSB134) (Non-patent Publication No. 27) was suspended at about 1.0×10^9 cfu/ml to prepare an inoculum. The thermally-treated and centrifuged immature embryos were mixed with the inoculum, vortexed for 30 seconds, and then allowed to stand for 5 minutes at room temperature.
The number of immature embryos which regenerated into whole plants was determined, and the regenerated plants were examined for their vigor.

[3] = tested on: Immature embryos (variety: A188); assay: Effect of dicamba and 2,4-D in coculture medium on regeneration (Example 2, FIG. 3); format: cell-based, Maize; conditions: for vigor of regenerated plants: mean score 0-3, coculture medium with this auxin alone (1.5 mg/l), selection step eliminated, FIG. 3
Text: FIG. 3 is a graph showing the effects of the dicamba/2,4-D ratio on the plant regeneration rate from cocultured immature embryos and on the vigor of regenerated plants. 38 immature embryos were provided for each test. The bar graph (vertical axis on the left side) represents the vigor of regenerated plants, the line graph (vertical axis on the right side) represents the regeneration rate (calculated by dividing the number of immature embryos showing regeneration in each test by the number of inoculated immature embryos), and the horizontal axis represents the percentage of dicamba contained in a coculture medium. The numerical values on the horizontal axis mean that auxin is contained in the coculture medium at the following ratios: 0 mg/l dicamba+1.5 mg/l 2,4-D (0% dicamba), 0.375 mg/l dicamba+1.125 mg/l 2,4-D (25% dicamba), 0.75 mg/l dicamba+0.75 mg/l 2,4-D (50% dicamba), 1.125 mg/l dicamba+0.375 mg/l 2,4-D (75% dicamba), and 1.5 mg/l dicamba+0 mg/l 2,4-D (100% dicamba). The vigor of regenerated plants was evaluated by scoring as follows: immature embryo showing no regeneration=0, immature embryo giving a regenerated shoot whose maximum length is less than 5 mm=1, immature embryo giving a regenerated shoot whose maximum length is 5 mm to less than 2 cm=2, and immature embryo giving a regenerated shoot whose maximum length is 2 cm or longer=3.
The vector U0009B shown in FIG. 2 and SEQ ID NO: 1 was constructed by adding necessary elements to a vector having pSB11 (Non-patent Publication No. 28) as a skeletal structure. […] The number of immature embryos which regenerated into whole plants was determined, and the regenerated plants were examined for their vigor.

[4] = 2 mg/l blasticidin S in regeneration medium
[5] = higher percentage of dicamba (0-100%, rest 2,4-D, total 1.5 mg/l) in coculture medium

Structure (SMILES)	Regeneration rate (%) [2] [%]	Vigor [2]	vigor of regenerated plants [3]	other results
CN(CC[C@H](N)CC(=O)N[C@H]1C=C[C@H](n2ccc(N)nc2=O)O[C@@H]1C(=O)O)C(=N)N [blasticidin, blasticidin S]				GUS− [1, 4]: 12; Number of immature embryos GUS+ (B) [1, 4]: 19; Striped, dotted (C) [1, 4]: 14; Number of immature embryos Regenerated [1, 4]: 45; Number of immature embryos Regenerated ([1]; 2 mg/l blasticidin S in regeneration medium, listed as blasticidin S): Almost all; B/A (%) ([1]; 2 mg/l blasticidin S, GUS+ per inoculated embryos): 41.3%; C/A (%) ([1]; 2 mg/l blasticidin S, striped/dotted per inoculated embryos): 3.04%
O=C(O)c1cc(I)cc(I)c1I [TIBA, 2,3,5-triiodobenzoic acid]	4.0	0.1		
O=C(O)COc1cc(Cl)c(Cl)cc1Cl [2,4,5-T, 2,4,5-trichlorophenoxyacetic acid]	84.0	1.5		
COc1c(Cl)ccc(Cl)c1C(=O)O [Dicamba, 3,6-dichloro-o-anisic acid]	100	1.5	2.3	growth of the regenerated plants [3, 5]: more vigorous growth; regeneration rate [3, 5]: higher regeneration rate
O=C(O)COc1ccc(Cl)cc1Cl [2,4-D, 2,4-dichlorophenoxyacetic acid]	84.0		0.3	
Nc1c(Cl)c(Cl)nc(C(=O)O)c1Cl [Picloram, 4-amino-3,5,6-trichloropicolinic acid]	76.4	1.2		
